According to patent US20200061212A1, “SOLID ORAL COMPOSITION CONTAINING DYES” (COSMO TECHNOLOGIES LTD., priority 2016, published 2020):

Assays:
[1] = test system: CYP 1A2
[2] = target: T1, P-gp (Homo sapiens, UniProt P08183); assay: in vitro transporter inhibition study; assay type: in vitro ADME; conditions: in vitro studies
[3] = test system: CYP 2B6
[4] = test system: subjects undergoing screening or surveillance colonoscopy; assay: Phase III placebo-controlled trial: Adenoma or Carcinoma detection rate and false positive rate at HD white light colonoscopy; assay type: in vivo, human; conditions: for ADR: Difference in Proportions of Methylene Low Dose vs. Placebo: 100 mg; for ADR: Difference in Proportions of Methylene Full Dose vs. Methylene Blue Low Dose: 200 mg vs 100 mg; for False Positive Rate: subjects with excisions and without any histologically proven Adenoma or Carcinoma, %: % of subjects with excision
Text: The detection rate was defined as the proportion of patients with at least one histologically proven Adenoma or Carcinoma.
In other words, in the study the standard of care (white light endoscopy) and the chromoendoscopy by oral administration of the MB tablets were compared. In the acquisition and recording of the colonoscopies, the latest and more technologically advanced, high definition (HD) endoscopes were used. Thus, the study allowed the direct comparison of the effect of the MB tablets on the adenoma or carcinoma detection rate to the current gold standard colonoscopy, i.e. the high definition (HD) white light colonoscopy. For this reason, in the context of the present example, the terms “placebo”, “white light high definition endoscopy” (WLHD) and “white light endoscopy” can be used interchangeably, and definitively indicate the current standard of care for the endoscopic examination of the colon. Due to the unavoidable impossibility to obtain double-blinding for the clinical study, since the endoscopist performing the colonoscopy was able to see if the colon was blue colored or unstained, an additional, underpowered, masking group was introduced. […] These patients had the colon stained in blue, but were not taken into account in the calculation of the study parameters. In this way, while performing the colonoscopy, the endoscopist was not aware if a patient belonged to the group of the full dose (whose patients were part of the statistical calculation) or to the “masking” group (whose patients received a lower dose of the composition and were not part of the statistical analysis).
Subjects aged between 50 and 75 years undergoing full colonoscopy for screening or surveillance of colorectal cancer were recruited.
Diet: In preparation for the colonoscopy patients adopted a low residue diet for three days prior to the colonoscopy. On the third day of the low residue diet patients must fast for at least 3 hours before starting intake of the bowel prep and study drug.
Bowel cleansing preparation: all subjects received a full dose regimen of 4 liters PEG-based bowel cleansing preparation starting in the late afternoon (after 6 pm) before the colonoscopy day. The subjects drank at least 250 mL of solution every 15 min, so that the intake of the cleansing preparation, and study drug were completed in 4 hours.
Dose regimen: The subjects were randomized 2:2:1 into three groups.
All the patients participating to the study, regardless of whether they belonged to Group one, Group two or Group three, received a timetable detailing the volumes of bowel cleansing preparation to be consumed, and the times to be respected:
The subjects had to drink about 250 mL of bowel cleansing preparation every 15 minutes, equivalent to 1 liter of bowel cleansing preparation every hour. The timeframe between an oral administration of tablets and the following one had to be 1 hour.
Adenoma was defined as a histologically proven Vienna Grade 3 to 4.2 or a histologically proven traditional serrated adenoma (TSA), or a histologically proven sessile serrated adenoma (SSA). Histologically proven Carcinoma was defined as Vienna Grade 4.3 to 5b.
Day of colonoscopy 02: patients returned to the clinic for the colonoscopy. The colonoscopy was performed using high definition (HD) colonoscope. Narrow-Band-Imaging (NBI) and all other electronic chromoendoscopy and contrast enhancement techniques, as well as zoom endoscopy or magnification were not permitted. The endoscopist performed the full colonoscopy and recorded and removed all the detected adenoma and/or carcinoma. The endoscopist recorded the morphology and size and classified the found polyps, adenomas and carcinomas, and recorded the pit pattern according to the Paris and Kudo's classification and following the endoscopy charter.

[5] = target: T1, P-gp; assay: in vitro transporter substrate study; assay type: in vitro ADME; conditions: in vitro studies
[6] = low dose 100 mg, Per Protocol N=225
[7] = patients with number of excisions 0-1, FAS
[8] = patients with number of excisions 0-1, PP
[9] = patients with number of excisions ≤3, FAS
[10] = patients with number of excisions ≤3, PP

T1 sequence (P08183 whole entry): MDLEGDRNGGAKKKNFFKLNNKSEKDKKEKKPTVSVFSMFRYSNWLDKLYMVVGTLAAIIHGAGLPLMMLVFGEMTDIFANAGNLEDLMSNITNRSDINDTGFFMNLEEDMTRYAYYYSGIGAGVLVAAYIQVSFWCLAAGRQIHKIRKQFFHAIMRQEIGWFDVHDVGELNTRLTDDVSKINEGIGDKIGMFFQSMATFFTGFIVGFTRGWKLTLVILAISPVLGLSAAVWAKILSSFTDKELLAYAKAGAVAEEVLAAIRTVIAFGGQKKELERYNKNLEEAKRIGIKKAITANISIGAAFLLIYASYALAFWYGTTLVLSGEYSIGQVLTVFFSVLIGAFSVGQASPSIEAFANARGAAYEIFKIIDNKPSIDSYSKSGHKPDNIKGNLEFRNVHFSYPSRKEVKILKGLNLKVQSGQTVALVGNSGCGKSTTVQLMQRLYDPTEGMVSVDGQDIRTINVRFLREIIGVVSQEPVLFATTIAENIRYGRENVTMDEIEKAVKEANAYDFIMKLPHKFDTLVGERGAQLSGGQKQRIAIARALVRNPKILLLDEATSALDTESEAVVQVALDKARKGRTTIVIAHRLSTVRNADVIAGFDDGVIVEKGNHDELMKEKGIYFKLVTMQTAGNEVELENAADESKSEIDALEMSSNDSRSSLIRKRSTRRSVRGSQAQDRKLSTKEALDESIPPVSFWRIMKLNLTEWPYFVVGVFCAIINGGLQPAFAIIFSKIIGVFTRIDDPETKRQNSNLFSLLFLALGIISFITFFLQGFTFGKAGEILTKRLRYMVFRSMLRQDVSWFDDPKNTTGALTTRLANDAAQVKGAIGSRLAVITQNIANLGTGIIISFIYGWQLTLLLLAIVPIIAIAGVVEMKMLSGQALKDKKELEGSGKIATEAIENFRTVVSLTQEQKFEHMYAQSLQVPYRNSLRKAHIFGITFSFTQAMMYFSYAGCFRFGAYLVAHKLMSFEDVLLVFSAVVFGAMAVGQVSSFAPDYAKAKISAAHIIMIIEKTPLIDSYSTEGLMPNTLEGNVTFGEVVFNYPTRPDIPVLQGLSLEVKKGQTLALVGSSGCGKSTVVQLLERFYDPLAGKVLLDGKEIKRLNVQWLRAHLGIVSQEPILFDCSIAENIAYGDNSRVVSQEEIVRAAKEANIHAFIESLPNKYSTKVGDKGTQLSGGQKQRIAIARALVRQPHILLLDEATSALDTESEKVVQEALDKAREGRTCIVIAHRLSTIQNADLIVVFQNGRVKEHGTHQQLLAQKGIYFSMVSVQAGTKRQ

## CN(C)c1ccc2nc3ccc(=[N+](C)C)cc-3sc2c1 [Methylene blue, Methylthioninium Chloride (Methylene Blue)]
[1]
  induction of CYP isozyme 1A2: induces
[2]
  inhibition of P-gp: weak inhibitor
[3]
  induction of CYP isozyme 2B6: induces
[4]; FAS
  ADR: Difference in Proportions of Methylene Low Dose vs. Placebo: 3.64
  ADR: Difference in Proportions of Methylene Full Dose vs. Methylene Blue Low Dose: 4.84
  Absolute difference in proportion of subjects between methylene blue full dose and placebo, Table 14 (non-polypoid lesions): 8.83%
  Absolute difference in proportion of subjects with diminutive adenomas between methylene blue full dose and placebo: 6.21%
  Difference in False Positive Rates of Methylene Blue Full Dose vs. Methylene Blue Low Dose: −2.88
  Difference in False Positive Rates of Methylene Blue Full Dose vs. Placebo: −6.44
  Difference in False Positive Rates of Methylene Blue Low Dose vs. Placebo: −3.56
  Percent increase in proportion of subjects for methylene blue full dose vs placebo, Table 14 (non-polypoid lesions): 25.2%
  Percent increase in proportion of subjects with diminutive adenomas for methylene blue full dose vs placebo: 20.1%
[4]; Per Protocol
  ADR: Difference in Proportions of Methylene Low Dose vs. Placebo: 5.86
  ADR: Difference in Proportions of Methylene Full Dose vs. Methylene Blue Low Dose: 4.46
  Difference in False Positive Rates of Methylene Blue Full Dose vs. Methylene Blue Low Dose: −3.03
  Difference in False Positive Rates of Methylene Blue Full Dose vs. Placebo: −7.51
  Difference in False Positive Rates of Methylene Blue Low Dose vs. Placebo: −4.49
[4]; 200 mg, FAS
  ADR: Difference in Proportions of Methylene Blue Full Dose vs. Placebo: 8.48
  Absolute difference in ADR between methylene blue full dose and placebo: 8.48%
  Percent decrease in FPR for methylene full dose vs placebo: 21.6%
  Percent increase in ADR for methylene full dose vs placebo: 17.7%
[4]; 200 mg, PP
  Percent decrease in FPR for methylene full dose vs placebo: 24.8%
[4]; 200 mg, Per Protocol
  ADR: Difference in Proportions of Methylene Blue Full Dose vs. Placebo: 10.32
  Absolute difference in ADR between methylene blue full dose and placebo: 10.32%
  Percent increase in ADR for methylene blue full dose vs placebo: 21.5%
[4]; Number of excisions 0-1, low dose 100 mg, FAS
  ADR, %: 20.83%
[4]; Number of excisions 4-6, full dose 200 mg, FAS
  ADR, %: (85.06) %
[4]; Number of excisions 4-6, low dose 100 mg, FAS
  ADR, %: 87.80%
[4]; Number of excisions >6, full dose 200 mg, FAS
  ADR, %: (97.22) %
[4]; Number of excisions >6, low dose 100 mg, FAS
  ADR, %: 100.00%
[4]; Number of excisions ≤3, low dose 100 mg, FAS
  ADR, %: 38.12%
[4]; excluding carcinoma, FAS
  Absolute difference in proportion of subjects with a histologically proven adenoma between methylene blue full dose and placebo: 9.33%
  Percent increase in proportion of subjects with a histologically proven adenoma for methylene blue full dose vs placebo: 20.3%
[4]; full dose 200 mg, FAS N=485
  Percentage of subjects with a histologically proven adenoma (excluding carcinoma): 55.26%
  Percentage of subjects with diminutive adenomas: 37.11%
  Percentage of subjects with non-polypoid lesions: 43.92%
  Subjects with excision, %: (73.40) %
  Total number of subjects with a histologically proven adenoma (excluding carcinoma): 268
  Total number of subjects with diminutive adenomas: 180
  Total number of subjects with non-polypoid lesions: 213
[4]; full dose 200 mg, PP
  ADR in patients with number of excisions 0-1: 25.32%
  ADR in patients with number of excisions ≤3: 68.24%
[4]; full dose 200 mg, Per Protocol N=455
  Subjects with excision, %: (75.38) %
[4]; low dose 100 mg (MB tablets of Example 6), FAS N=241
  Subjects with at least one histologically proven Adenoma or Carcinoma (ADR), %: 51.45%
[4]; low dose 100 mg, FAS N=241
  Subjects with excision, %: 69.71%
[4]; low dose 100 mg, FAS
  False Positive Rate: subjects with excisions and without any histologically proven Adenoma or Carcinoma, %: 26.19%
[4]; [6]
  Subjects with at least one histologically proven Adenoma or Carcinoma (ADR), %: 53.78%
  Subjects with excision, %: 72.44%
[4]; low dose 100 mg, Per Protocol
  False Positive Rate: subjects with excisions and without any histologically proven Adenoma or Carcinoma, %: 25.77%
[4]; [7]
  Absolute difference in ADR between methylene blue full dose and placebo: 7.24%
  Percent increase in ADR for methylene full dose vs placebo: 38.2%
[4]; [8]
  Absolute difference in ADR between methylene blue full dose and placebo: 9.15%
  Percent increase in ADR for methylene full dose vs placebo: 45.4%
[4]; [9]
  Absolute difference in ADR between methylene blue full dose and placebo: 9.40%
  Percent increase in ADR for methylene full dose vs placebo: 26.2%
[4]; [10]
  Absolute difference in ADR between methylene blue full dose and placebo: 11.47%
  Percent increase in ADR for methylene full dose vs placebo: 40.8%
[5]
  substrate of the membrane transport protein P-gp: possible substrate
